Like-named read-outs stand apart in the source and are kept apart here.

Series [1] deals with NPM1 T199 phosphorylation. The series can be described thus: Western blot of NPM1 T199 phosphorylation in PANC-1 cells. The series is classed as cell-based. The conditions noted are these: 2 h. The source says:
We further investigated changes in NPM1 phosphorylation in our dataset. Of the NPM1 phosphorylation sites quantified, four sites had significant dose-dependent decreases upon 51-106 treatment: S137, T199, S222, and S227. Only one of these phosphorylation sites, T199, has a commercially available antibody. Importantly, T199 phosphorylation plays an essential role in NPM1 function, as it is required for localization of NPM1 to sites of DNA double-stranded breaks, where it colocalizes with other DNA repair proteins such as γH2AX and RAD51 [38].
Cells were washed with cold 1× PBS and lysed in Radioimmunoprecipitation assay (RIPA) buffer (Cat# 89901; Thermo Fisher Scientific), sodium orthovanadate (Na3VO4) (Cat# 567540-5GM; Sigma-Aldrich; St. Louis, MO, USA), sodium fluoride (NaF) (Cat# 201154-5G, >99% purity; Sigma-Aldrich), β-glycerophosphate (Cat# G9422-10G; Sigma-Aldrich), and 1 mM phenylmethylsulfonyl fluoride (Cat# 10837091001; Sigma Aldrich). The samples were incubated on ice for 30 min, vortexed at 10 min intervals, and centrifuged at 14,000× g for 10 min at 4 °C. The supernatant was collected, and protein was quantified using the BCA Protein Assay kit (Cat# 23225; Thermo Fisher Scientific). […]
Background: A western blot detects proteins with antibodies after separation by electrophoresis.

Series [2] is described as follows: Metabolic stability in human liver microsomes (LC-MS/MS). Type of series: in vitro ADME. To be noted: Species Human. The source says: An approach to address this issue of bioavailability is to improve metabolic stability. The para-position of the phenyl ring in acetanilide moieties is susceptible to oxidation. […] To test this, we altered the substitution pattern on the phenyl ring by moving the F atom from the ortho in 84 to the para position (Figure 1A). The regioisomer 51-106, resulting from the above change, was synthesized by coupling 3-(1-methyl-1H-pyrazol-4-yl)quinoxalin-6-amine (1) with freshly prepared 1-fluoro-4-isocyanato-2-(trifluoromethyl)benzene in dichloromethane (Scheme 1). To determine the metabolic stability of 51-106, we incubated 51-106 and analog 84 with human (pooled male and female) liver microsomes and monitored their stability using liquid chromatography–tandem mass spectrometry.
The in vitro metabolic stability of 51-106 was determined using human liver […] (XenoTech, LLC; Kansas City, KS, USA), following previously reported methods. […] Sample analysis was performed by liquid chromatography–tandem mass spectrometry (SCIEX QTRAP 4000 LC-MS/MS System, SCIEX, Framingham, MA, USA).
In general terms: Microsomes from liver hold many membrane-bound enzymes, among them those of drug oxidation.

On the set-up of series [3]: method as in PMID 34098465. To be noted: cited from earlier work.
Series [4] has as its system pancreatic cancer mouse model. Set-up: method as in PMID 34098465. To be noted: by itself and in combination with gemcitabine; cited from earlier work.
The subject of series [5] is TNFα-induced IKKβ-mediated NFκB activation. Set-up: method as in PMID 34098465. To be noted: analog 84 over the earlier IKKβ inhibitor; cited from earlier work.

For `CN[C@@H]1C[C@H]2O[C@@](C)([C@@H]1OC)n1c3ccccc3c3c4c(c5c6ccccc6n2c5c31)C(=O)NC4` [Staurosporine, reference compound], the “NPM1 T199 phosphorylation (Western blot)” value in series [1] is given as “Decreased phosphorylation in NPM1 T199”.
As a reminder, the Cmax is the peak of the concentration-time curve. One may read the Tmax as the time from dosing to the highest level. With `Cn1cc(-c2cnc3ccc(NC(=O)Nc4cccc(C(F)(F)F)c4F)cc3n2)cn1` [Analog 84], in series [2], the “T1/2 (half-life) in human liver microsomes” value is on record as ~ 13 h. Also, the “Hepatic Extraction Ratio (E)” value in series [2] (human liver microsomes) was 0.09. Further, the half-life in series [2] (both sexes, human, liver microsomes, read-out: T1/2 (half-life) in human liver microsomes (converted)) is 13.6 h. Also, in series [3] (20 mg/kg, Oral), the “AUC0-∞” value is 8008 ± 3696 ng·h/mL, the AUClast was 7986 ± 3675 ng·h/mL, the highest concentration (Cmax) is listed as 700 ± 320 ng/mL and the “MRT 0-∞” value is 6.3 ± 0.5 h. Besides, in series [3] (20 mg/kg, Oral), the T1/2 is on record as 2.5 ± 0.3 h and the Tmax is 6.0 h. The “Bioavailability (%F)” value in series [3] (20 mg/kg, Oral, listed as 84) was 17.6%. Further, the “Bioavailability (%F)” value in series [3] (20 mg/kg, Oral, listed as analog 84) is reported as ~17%. Besides, the improved bioavailability in series [3] (analog 84 over the earlier IKKβ inhibitor) is given as ~ 5.7 fold. For the same compound, the tumor growth result in series [4] was “inhibited tumor growth”. Further, the improved potency in series [5] is ~ 4 fold.
